# From patent US20040063716A1, “Cholesterol biosynthesis inhibitors containing as the active ingredient tricyclic spiro compounds” (priority 2000, published 2004)
# Tested on: human plasma
# Experiment: Measurement of intrinsic coagulation time (APTT) in vitro
# Assay type: biochemical
# Details: not given
# Method: Activated partial thromboplastin time (APTT) is measured in the presence of the test compounds diluted at various concentrations. A test compound diluted with DMSO at various concentrations is mixed with human plasma and APTT reagent. The mixture is incubated at 37° C. for 2 minutes; calcium chloride (25 mM) is added to the mixture; and the coagulation time is thereafter measured. It should be noted that the anticoagulant activity of the test compound is described in terms of the concentration required to double the coagulation time for the case where no test compound is added.
row,Structure (SMILES),Concentration required to double coagulation time [µM]
1,"O=C(O)COCC12CN(S(=O)(=O)c3ccc4cc(Cl)ccc4c3)CC(=O)N1CC1(CCN(c3ccncc3)CC1)O2 (stereo not drawn) [Example 5, 1,4-Diaza-4-(6-chloronaphthalen-2-ylsulfonyl)-6-(carboxymethoxymethyl)-7-oxa-1′-(4-pyridyl)spiro[bicyclo[4.3.0]nonane-8,4′-piperidin]-2-one]",0.43
2,"COCC12CN(S(=O)(=O)c3cc4ccc(Cl)cc4s3)CC(=O)N1CC1(CCN(c3ccncc3)CC1)N2 (stereo not drawn) [Example 461, 1,4,7-Triaza-4-(6-chlorobenzo[b]thiophen-2-ylsulfonyl)-6-(methoxymethyl)-1′-(4-pyridyl)spiro[bicyclo[4.3.0]nonane-8,4′-piperidin]-2-one]",0.16
3,"COCC12CN(S(=O)(=O)c3cc4cc(Cl)ccc4o3)CC(=O)N1CC1(CCN(c3ccncc3)CC1)N2 (stereo not drawn) [Example 471, 1,4,7-Triaza-4-(5-chlorobenzo[b]furan-2-ylsulfonyl)-6-(methoxymethyl)-1′-(4-pyridyl)spiro[bicyclo[4.3.0]nonane-8,4′-piperidin]-2-one]",0.27
4,"COCC12CN(S(=O)(=O)c3cc4cc(Cl)ccc4o3)CC(=O)N1CC1(CCN(c3ccncc3)CC1)N2C (stereo not drawn) [Example 533, 1,4,7-Triaza-4-(5-chlorobenzo[b]furan-2-ylsulfonyl)-6-(methoxymethyl)-7-methyl-1′-(4-pyridyl)spiro[bicyclo[4.3.0]nonane-8,4′-piperidin]-2-one]",0.35
5,"O=C1CN(S(=O)(=O)C=Cc2ccc(Cl)s2)CC2OC3(CCN(c4ccncc4)CC3)CN12 (stereo not drawn) [Example 600, 1,4-Diaza-4-[2-(5-chlorothiophen-2-yl)ethenesulfonyl]-7-oxa-1′-(4-pyridyl)spiro[bicyclo[4.3.0]nonane-8,4′-piperidin]-2-one]",0.22
6,"COCC12CN(S(=O)(=O)C=Cc3ccc(Cl)s3)CC(=O)N1CC1(CCN(c3ccncc3)CC1)N2C (stereo not drawn) [Example 740, 1,4,7-Triaza-4-[2-(5-chlorothiophen-2-yl)ethenesulfonyl]-6-(methoxymethyl)-7-methyl-1′-(4-pyridyl)spiro[bicyclo[4.3.0]nonane-8,4′-piperidin]-2-one]",0.18

# Target: T1, human FXa (Homo sapiens, UniProt P00742)
# T1 construct: purchased Enzyme Research Laboratories, Inc
# Experiment: Measurement of human FXa inhibitory action (chromogenic substrate S-2222)
# Assay type: biochemical
# Details: human FXa 0.019 U/ml, S-2222 0.4 mM, 37° C., pH 7.5
# Method: In vitro FXa inhibitory activity is measured in accordance with the method of Kettner et al. (Journal of Biological Chemistry, vol. 265, pages 18289 to 18297, 1990). To be more specific, human FXa (product of Enzyme Research Laboratories, Inc., 0.019 U/ml) is mixed with a test compound diluted with dimethylsulfoxide (DMSO) at various concentrations and a synthetic substrate S-2222 (Chromogenix AB, 0.4 mM). The mixtures are incubated at 37° C. in Tris-hydrochloric acid buffer (pH 7.5) while the absorbance at 405 nm is measured continuously. To calculate the FXa inhibitory activity of the test compound, the initial reaction velocity is compared with the value for a control containing no test compound. It should be noted that the FXa inhibitory activity of the test compound is generally indicated as IC50.
# T1 sequence (P00742 235-488 limits assumed): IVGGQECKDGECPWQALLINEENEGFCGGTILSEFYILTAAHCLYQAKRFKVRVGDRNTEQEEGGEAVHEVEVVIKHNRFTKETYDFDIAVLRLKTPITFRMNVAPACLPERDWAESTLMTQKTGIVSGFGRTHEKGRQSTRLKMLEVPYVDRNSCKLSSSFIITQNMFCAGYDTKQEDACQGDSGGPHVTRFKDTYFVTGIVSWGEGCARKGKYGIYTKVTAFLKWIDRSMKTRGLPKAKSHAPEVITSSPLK
# T1 sequence (P00742 41-179 partner limits assumed): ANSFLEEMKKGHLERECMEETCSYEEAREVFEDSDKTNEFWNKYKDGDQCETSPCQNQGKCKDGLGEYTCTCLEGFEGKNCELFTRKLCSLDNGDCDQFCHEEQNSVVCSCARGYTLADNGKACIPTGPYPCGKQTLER
row,Structure (SMILES),IC50 [nM]
1,"COCC12CN(S(=O)(=O)c3ccc4cc(Cl)ccc4c3)CC(=O)N1CC1(CCN(c3ccncc3)CC1)O2 (stereo not drawn) [Example 1, 1,4-Diaza-4-(6-chloronaphthalen-2-ylsulfonyl)-6-(methoxymethyl)-7-oxa-1′-(4-pyridyl)spiro[bicyclo[4.3.0]nonane-8,4′-piperidin]-2-one]",3.2
2,"O=C(O)COCC12CN(S(=O)(=O)c3ccc4cc(Cl)ccc4c3)CC(=O)N1CC1(CCN(c3ccncc3)CC1)O2 (stereo not drawn) [Example 5, 1,4-Diaza-4-(6-chloronaphthalen-2-ylsulfonyl)-6-(carboxymethoxymethyl)-7-oxa-1′-(4-pyridyl)spiro[bicyclo[4.3.0]nonane-8,4′-piperidin]-2-one]",2.9
3,"O=C1CN(S(=O)(=O)c2ccc3cc(Cl)ccc3c2)CC2OC3(CCN(c4ccncn4)CC3)CN12 (stereo not drawn) [Example 10, 1,4-Diaza-4-(6-chloronaphthalen-2-ylsulfonyl)-7-oxa-1′-(4-pyrimidinyl)spiro[bicyclo[4.3.0]nonane-8,4′-piperidin]-2-one]",5.4
4,"CCOC(=O)C12CN(S(=O)(=O)c3ccc4cc(Cl)ccc4c3)CC(=O)N1CC1(CCN(c3ccncc3)CC1)O2 (stereo not drawn) [Example 25, 1,4-Diaza-4-(6-chloronaphthalen-2-ylsulfonyl)-6-(ethoxycarbonyl)-7-oxa-1′-(4-pyridyl)spiro[bicyclo[4.3.0]nonane-8,4′-piperidin]-2-one]",1.5

# More lines, now with the values ahead:
row,IC50 [nM],Structure (SMILES)
1,1.9,"O=C1CN(S(=O)(=O)c2ccc3cc(Cl)ccc3c2)CC2(C(=O)O)OC3(CCN(c4ccncc4)CC3)CN12 (stereo not drawn) [Example 50, Ammonium 1,4-Diaza-4-(6-chloronaphthalen-2-ylsulfonyl)-7-oxa-2-oxo-1′-(4-pyridyl)spiro[bicyclo[4.3.0]nonane-8,4′-piperidine]-6-carboxylate]"
2,3.4,"CCOC(=O)NCC12CN(S(=O)(=O)c3ccc4cc(Cl)ccc4c3)CC(=O)N1CC1(CCN(c3ccncc3)CC1)O2 (stereo not drawn) [Example 59, 1,4-Diaza-4-(6-chloronaphthalen-2-ylsulfonyl)-6-(ethoxycarbonylaminomethyl)-7-oxa-1′-(4-pyridyl)spiro[bicyclo[4.3.0]nonane-8,4′-piperidin]-2-one]"
3,2.8,"O=C1CN(S(=O)(=O)c2ccc3cc(Cl)ccc3c2)CC2(CN3CCOCC3)OC3(CCN(c4ccncc4)CC3)CN12 (stereo not drawn) [Example 61, 1,4-Diaza-4-(6-chloronaphthalen-2-ylsulfonyl)-6-(morpholinomethyl)-7-oxa-1′-(4-pyridyl)spiro[bicyclo[4.3.0]nonane-8,4′-piperidin]-2-one]"
4,0.6,"O=C1CN(S(=O)(=O)c2cc3ccc(Cl)cc3s2)CC2OC3(CCN(c4ccncc4)CC3)CN12 (stereo not drawn) [Example 213, 1,4-Diaza-4-(6-chlorobenzo[b]thiophen-2-ylsulfunyl)-7-oxa-1′-(4-pridyl)spiro[bicyclo[4.3.0]nonane-8,4′-piperidin]-2-one]"
5,5.3,"O=C1CN(S(=O)(=O)C=Cc2ccc(Cl)s2)CC2NC3(CCN(c4ccncc4)CC3)CN12 (stereo not drawn) [Example 628, 1,4,7-Triaza-4-[2-(5-chlorothiophen-2-yl)ethenesulfonyl]-1′-(4-pyridyl)spiro[bicyclo[4.3.0]nonane-8,4′-piperidin]-2-one]"
6,1.8,"COCC12CN(S(=O)(=O)C=Cc3ccc(Cl)s3)CC(=O)N1CC1(CCN(c3ccncc3)CC1)O2 (stereo not drawn) [Example 684, 1,4-Diaza-4-[2-(5-chlorothiophen-2-yl)ethenesulfonyl]-6-(methoxymethyl)-7-oxa-1′-(4-pyridyl)spiro[bicyclo[4.3.0]nonane-8,4′-piperidin]-2-one]"
7,1.8,"COCC12CN(S(=O)(=O)C=Cc3ccc(Cl)s3)CC(=O)N1CC1(CCN(c3ccncc3)CC1)N2 (stereo not drawn) [Example 712, 1,4,7-Triaza-4-[2-(5-chlorothiophen-2-yl)ethenesulfonyl]-6-(methoxymethyl)-1′-(4-pyridyl)spiro[bicyclo[4.3.0]nonane-8,4′-piperidin]-2-one]"
8,5.9,"O=C1CN(S(=O)(=O)c2ccc3nc(Cl)ccc3c2)CC2OC3(CCN(c4ccncc4)CC3)CN12 (stereo not drawn) [Example 760, 1,4-Diaza-4-(2-chloroquinolin-6-ylsulfonyl)-7-oxa-1′-(4-pyridyl)spiro[bicyclo[4.3.0]nonane-8,4′-piperidin]-2-one]"
9,5.7,"O=C1CN(S(=O)(=O)c2ccc3cc(Cl)ccc3c2)CC2NC3(CCN(c4ccncc4)CC3)CN12 (stereo not drawn) [Example 765, 1,4,7-Triaza-4-(6-chloronaphthalen-2-ylsulfonyl)-1′-(4-pyridyl)spiro[bicyclo[4.3.0]nonane-8,4′-piperidin]-2-one]"
10,1.8,"COCC12CN(S(=O)(=O)c3ccc4nc(Cl)ccc4c3)CC(=O)N1CC1(CCN(c3ccncc3)CC1)O2 (stereo not drawn) [Example 770, 1,4-Diaza-4-(2-chloroquinolin-6-ylsulfonyl)-6-(methoxymethyl)-7-oxa-1′-(4-pyridyl)spiro[bicyclo[4.3.0]nonane-8,4′-piperidin]-2-one]"

# Target: T2, trypsin (Bos taurus, UniProt P00760)
# T2 construct: gene PRSS1
# T2 sequence (P00760 24-246): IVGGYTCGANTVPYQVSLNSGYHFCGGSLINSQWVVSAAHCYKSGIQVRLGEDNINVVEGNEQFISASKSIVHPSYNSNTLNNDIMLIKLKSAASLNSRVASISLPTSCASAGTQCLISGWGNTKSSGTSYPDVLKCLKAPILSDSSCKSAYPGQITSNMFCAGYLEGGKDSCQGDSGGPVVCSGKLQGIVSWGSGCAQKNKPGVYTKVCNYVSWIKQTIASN
# Experiment: Inhibitory activity for trypsin
# Assay type: biochemical
# Details: FXa versus trypsin
row,selectivity for trypsin,Structure (SMILES)
1,remarkably high selectivity,"COCC12CN(S(=O)(=O)c3ccc4cc(Cl)ccc4c3)CC(=O)N1CC1(CCN(c3ccncc3)CC1)O2 (single isomer, unassigned; (-)) [Compound A, (−)-1,4-diaza-4-(6-chloronaphthalen-2-ylsulfonyl)-6-(methoxymethyl)-7-oxa-1′-(4-pyridyl)spiro[bicyclo[4.3.0]nonane-8,4′-piperidin]-2-one]"
